Results: patent EP1650209A1, “Griseusin derivatives and their use as antitumor agents” (Oncotest GmbH, priority 2004, dated 2006)
In brackets after ≈: the same amount, converted by molar mass.

What was measured:
Assay in all cases: Clonogenic assay, colony formation of tumor stem cells from xenografts
Format in all cases: cell-based, human
[1] = system: BXF 1036; details: Bladder, xenograft BXF 1036, colony formation
Experimental: (§1) Using various human cancer xenografts in vitro, the concentrations of compound B which inhibit formation of tumor colonies of tumor stem cells by 50% (IC50) and 70% (IC70) are determined in a clonogenic assay. Specifically, each solid tumor of bladder cancer (BXF 1036 and BXF 1299), cervical cancer (CEXF 633 and CEXF 773), colic cancer (CXF 1103, CXF 158, CXF 1729, CXF 264 and CXF 280), gastric cancer (GXF 251 and GXF 97), head and neck cancer (HNXF 536), liver cancer (LIXF 575), non small cell lung cancer comprising adeno, squamous epithelium and large cell carcinoma (LXFA 1012, LXFA 289, LXFA 297, LXFA 526, LXFA 592, LXFA 629, LXFA 677, LXFE 409, LXFL 1072, LXFL 430LX and LXFL 529), small cell lung cancer (LXFS 650), mammary cancer (MAXF 1162, MAXF 1384, MAXF 401, MAXF 449, MAXF 574, MAXF 583, MAXF 713 and MAXF 857), melanoma (MEXF 1341, MEXF 462, MEXF 535 and MEXF 989), ovary cancer (OVXF 899), pancreatic cancer (PAXF 546 and PAXF 736), prostate cancer (DU-145 and PC3M), pleuramesothelioma (PXF 1752), renal cancer (RXF 1220, RXF 1393, RXF 393, RXF 631 and RXF 944LX), and sarcoma (SXF 1301 and SXF 463) engrafted on RPMI nu/nu thymus aplastic nude mice were explanted, disaggregated by mincing and enzymatic digestion for 50 minutes using 125 U/mL DNAse I, 41 U/mL collagenase IV, 100 U/ml hyaluronidase III, and 1 U/mL dispase I, and passed through sieves of 200 µm and 50 µm mesh size and washed twice with sterile PBS-buffer to remove cell aggregated from single cells. The clonogenic assay was performed in a 24 multiwell format. Each of the resulting single cell suspensions was added at a density of 2·10^4 to 6·10^4 cells per well to 0.2 ml of Iscove's Modified Dulbecco's Medium (IMDM) containing 20% fetal calf serum and 0.01% gentamicin supplemented with 0.4% (w/v) agar, and plated onto a bottom layer consisting of the same culture medium containing 0.75% (w/v) agar. After 24 hours IMDM containing 20% fetal calf serum and 0.01 % gentamicin, together with a test compound, was added there to. Then, the plate was incubated at 37°C for 10 to 20 days in a humidified atmosphere of air containing 7.5% CO2. Within this period, in vitro tumor growth led to the formation of colonies with a diameter of > 50µm. Colony counts were performed with an automatic image analysis system (OMNICON 3600). 24 hours prior to evaluation, vital colonies were stained with a vital staining dye. Therefore, 100 µl of a sterile aqueous solution of 2-(4-iodophenyl)-3-(4-nitrophenyl)-5-phenyltetrazolium chloride (1 mg/ml) were added to each well of the plate, and plates were incubated for 24 hours at 37°C in a humidified atmosphere of air containing 7.5% CO2. Inhibition of colony formation was expressed as test versus untreated control (T/C-value [%]). IC50 and IC70 values were determined by plotting compound concentration versus cell viability. Table 3: Inhibition of Colony Formation of Tumor Stem Cells by griseusin derivative B

[2] = system: CEXF 633; details: Cervix, xenograft CEXF 633, colony formation
Experimental: as §1

[3] = system: CXF 280; details: Colon, xenograft CXF 280, colony formation
Experimental: as §1

[4] = system: DU-145; details: Prostate, xenograft DU-145, colony formation
Experimental: as §1

[5] = system: GXF 251; details: Stomach, xenograft GXF 251, colony formation
Experimental: as §1

[6] = system: GXF 97; details: Stomach, xenograft GXF 97, colony formation
Experimental: as §1

[7] = system: HNXF 536; details: Head and Neck, xenograft HNXF 536, colony formation
Experimental: as §1

[8] = system: LIXF 575; details: Liver, xenograft LIXF 575, colony formation
Experimental: as §1

[9] = system: LXFA 592; details: Lung, non small cell, xenograft LXFA 592, colony formation
Experimental: as §1

[10] = system: LXFL 1072; details: Lung, non small cell, xenograft LXFL 1072, colony formation
Experimental: as §1

[11] = system: LXFL 430LX; details: Lung, non small cell, xenograft LXFL 430LX
Experimental: as §1

[12] = system: MAXF 449; details: Breast, xenograft MAXF 449, colony formation
Experimental: as §1

[13] = system: MAXF 713; details: Breast, xenograft MAXF 713, colony formation
Experimental: as §1

[14] = system: MEXF 535; details: Melanoma, xenograft MEXF 535, colony formation
Experimental: as §1

[15] = system: MEXF 989; details: Melanoma, xenograft MEXF 989, colony formation
Experimental: as §1

[16] = system: RXF 1220; details: Kidney, xenograft RXF 1220, colony formation
Experimental: as §1

[17] = system: RXF 1393; details: Kidney, xenograft RXF 1393, colony formation
Experimental: as §1

[18] = system: SXF 1301; details: Sarcoma, xenograft SXF 1301, colony formation
Experimental: as §1

C[C@@H]1CC(=O)[C@@H](O)[C@]2(O1)O[C@@H]1CC(=O)O[C@@H]1C1=C2C(=O)c2c(O)cccc2C1=O [Compound B, 4'-dehydro-deacetylgriseusin A]
IC50 [1]: 1.743 µg/mL (≈ 4.35 µM)
IC70 [1]: 2.271 µg/mL (≈ 5.67 µM)
IC50 [2]: 1.310 µg/mL (≈ 3.27 µM)
IC70 [2]: 1.837 µg/mL (≈ 4.59 µM)
IC50 [3]: 0.379 µg/mL (≈ 0.947 µM)
IC70 [3]: 0.609 µg/mL (≈ 1.52 µM)
IC50 [4]: 1.086 µg/mL (≈ 2.71 µM)
IC70 [4]: 1.644 µg/mL (≈ 4.11 µM)
IC50 [5]: 0.333 µg/mL (≈ 0.832 µM)
IC70 [5]: 0.677 µg/mL (≈ 1.69 µM)
IC50 [6]: 0.300 µg/mL (≈ 0.749 µM)
IC70 [6]: 0.495 µg/mL (≈ 1.24 µM)
IC50 [7]: 0.350 µg/mL (≈ 0.874 µM)
IC70 [7]: 0.547 µg/mL (≈ 1.37 µM)
IC50 [8]: 0.616 µg/mL (≈ 1.54 µM)
IC70 [8]: 0.764 µg/mL (≈ 1.91 µM)
IC50 [9]: 0.215 µg/mL (≈ 0.537 µM)
IC70 [9]: 0.468 µg/mL (≈ 1.17 µM)
IC50 [10]: 0.252 µg/mL (≈ 0.629 µM)
IC70 [10]: 0.468 µg/mL (≈ 1.17 µM)
IC50 [11]: 0.272 µg/mL (≈ 0.679 µM)
IC70 [11]: 0.468 µg/mL (≈ 1.17 µM)
IC50 [12]: 0.400 µg/mL (≈ 0.999 µM)
IC70 [12]: 0.648 µg/mL (≈ 1.62 µM)
IC50 [13]: 0.498 µg/mL (≈ 1.24 µM)
IC70 [13]: 0.700 µg/mL (≈ 1.75 µM)
IC50 [14]: 0.055 µg/mL (≈ 0.137 µM)
IC70 [14]: 0.094 µg/mL (≈ 0.235 µM)
IC50 [15]: 0.118 µg/mL (≈ 0.295 µM)
IC70 [15]: 0.182 µg/mL (≈ 0.455 µM)
IC50 [16]: 0.782 µg/mL (≈ 1.95 µM)
IC70 [16]: 0.952 µg/mL (≈ 2.38 µM)
IC50 [17]: 0.592 µg/mL (≈ 1.48 µM)
IC70 [17]: 0.769 µg/mL (≈ 1.92 µM)
IC50 [18]: 0.328 µg/mL (≈ 0.819 µM)
IC70 [18]: 0.517 µg/mL (≈ 1.29 µM)
